Experimental data published in US8772355B2, “Stealth polymeric particles for delivery of bioactive or diagnostic agents” (Howard University, priority 2010, dated 2014).

Assay: Preliminary solubility tests
Format: physicochemical
Settings: preliminary solubility tests for both compounds

SMILES: CC(=O)N(C(C)=O)C1=C(Cl)C(=O)c2ccccc2C1=O [Zapp88, 2-chloro-3-diacetylamino-1,4-naphthoquinone]
- hydrophobicity compared with paclitaxel: more hydrophobic
